Experiments:
A-2780 = assay: Cytotoxicity by LDH release (Cytotox 96); type: cell-based, human; conditions: 1.5 μM, % of total LDH, 24 hr or 48 hr
Description: (§1) The leader peptide of 24 aa. […] The release of lactate dehydrogenase (LDH) was then measured quantitatively in the supernatant of the culture medium of the cells after 24 hr of incubation, using the Cytotox 96 non riadioactive cytotoxic assay kit in compliance with the technical indications provided by Promega. The experiments were performed in triplicate in an independent manner, using different preparations. (Table III)
(§2) After the incubation the amount of lactate dehydrogenase (LDH) released from cells into the supernatant was measured. This quantity was expressed as a percentage of the total LDH (released by cells in which cell lysis had been induced using a detergent). Approximately 3% of LDH was found in the culture medium of not treated cells.

[1] = tested on: Human breast carcinoma MCF-7; assay: Cytotoxicity by LDH release (Cytotox 96); type: cell-based; conditions: 1.5 μM, % of total LDH, 24 hr or 48 hr
Description: as §1, §2

A375 = assay: Determination of platinum in culture medium and cell pellet by atomic absorption spectrophotometry; type: cell-based, human; conditions: 92 μM, 3 hours
Description: (§3) The cells to be examined, after the incubation period, were harvested, washed twice in buffered solution (PBS) and treated with 50 μl of 35% HNO3 for 16 hours. The platinum (Pt) contained in the culture medium or in the cell pellet was determined by spectrophotometer at atomic absorption (Analyst 800, Perkin-Elmer, Norwalk, Conn.) using the following criteria: temperature of pretreatment, 1300° C., temperature of atomizing 2200° C. 0.015 μg of palladium were used (palladium has been used for the modification of the matrix) and 0.01 μg of Mg (NO3)2 as a modifier of the matrix. The determinations were performed using a graphite furnace equipped with the correction system of the Zeeman effect. For the determination of the metal, tubes of pyrolytic graphite coated with THGA were used (Perkin-Elmer) with an integrated “vov-type platform” system. A standard solution of platinum in 2.5% HNO3 (Spectrascan) was used as a mother solution for the construction of a calibration curve with three points of reference. Each determination was performed independently, in triplicate (11).

MCF-7 = assay: as above; type: cell-based, human; conditions: 92 μM, 3 hours
Description: as §3

HUH-7 = assay: as above; type: cell-based, human; conditions: 92 μM, 3 hours
Description: as §3

A2780 = assay: as above; type: cell-based, human; conditions: 92 μM, 3 hours
Description: as §3

DU145 = assay: as above; type: cell-based, human; conditions: 92 μM, 3 hours
Description: as §3

MRC-5 = assay: Cytotoxicity by LDH release (Cytotox 96); type: cell-based, human; conditions: 1.5 μM, % of total LDH, 24 hr or 48 hr
Description: as §1, §2

PaTu Ca pancreatic = assay: Cytotoxicity by LDH release (Cytotox 96); type: cell-based, human; conditions: 1.5 μM, % of total LDH, 24 hr or 48 hr
Description: as §1, §2

HUT-7 Hepatocarcinoma = assay: Cytotoxicity by LDH release (Cytotox 96); type: cell-based, human; conditions: 1.5 μM, % of total LDH, 24 hr or 48 hr
Description: as §1, §2

cells = assay: Ability of hexapeptide conjugated to fluorescein to enter cells (immunocytochemistry); type: cell-based; conditions: immunocytochemistry examination
Source text: The test results are positive and confirms the previous data.

[2] = tested on: Human breast cancer MCF-7; assay: Immuno-histochemical assessment of internalization (Ab anti-leader peptide 24 aa); type: cell-based; conditions: 3 hours, 92 μM, positive = brownish coloration
Description: (§4) Subsequently, a cytospin was used to obtain a smear of cells on slides. […] The immuno-coloring was performed using the Dako LSA+System HRP kit (DAKO, CA, USA). The incubation lasted 30 minutes with primary antibody anti-peptide leader of 24 aa (1:200), produced in rabbits. This phase was followed by sequential method that requires a 30-min incubation with biotinylated antibody and peroxidase-labeled streptavidin. To complete the reaction of differentiation, a substrate-chromogen solution was engaged. Cell smears were colored with hematoxylin.
(§5) A positive reaction is represented by a brownish coloration. A blue coloration indicates negativity.
(§6) After incubation with these molecules, the cells were washed and treated with the polyclonal antibody for three hours at rt, and then the cells were washed with a solution of PBS [17, 18].

A-375 Melanoma = assay: as above; type: cell-based, human; conditions: 3 hours, 92 μM, positive = brownish coloration
Description: as §4, §5, §6

A-2780 Ovarian Ca = assay: as above; type: cell-based, human; conditions: 3 hours, 92 μM, positive = brownish coloration
Description: as §4, §5, §6

[3] = tested on: DU 145 Renal Cell Carcinoma; assay: as above; type: cell-based, human; conditions: 3 hours, 92 μM, positive = brownish coloration
Description: as §4, §5, §6

HUH HCC = assay: as above; type: cell-based, human; conditions: 3 hours, 92 μM, positive = brownish coloration
Description: as §4, §5, §6

[4] = tested on: tumor cells of human origin; assay: Immuno-histochemical assessment of internalization; type: cell-based; conditions: text summary of Table II
Description: Subsequently, a cytospin was used to obtain a smear of cells on slides. The cells were then placed in Zamboni solution (4% paraformaldehyde, 15% picric acid) for 60 min and then washed with a solution of 1×PBS and incubated for 5 min with 3% hydrogen peroxide to suppress the action of endogenous peroxidase. The immuno-coloring was performed using the Dako LSA+System HRP kit (DAKO, CA, USA). The incubation lasted 30 minutes with primary antibody anti-peptide leader of 24 aa (1:200), produced in rabbits. This phase was followed by sequential method that requires a 30-min incubation with biotinylated antibody and peroxidase-labeled streptavidin. To complete the reaction of differentiation, a substrate-chromogen solution was engaged. Cell smears were colored with hematoxylin.
as §5
The immunocytochemical analysis was performed using a polyclonal antibody able to recognize the amino acid sequence of the peptide leader of rMnSOD (7), ie of 24 aa. among which there are also those that form the hexapeptide.
After incubation with these molecules, the cells were washed and treated with the polyclonal antibody for three hours at rt, and then the cells were washed with a solution of PBS [17, 18]. In control cells (not treated and those treated with the antibody alone), the reaction is negative. […]

N.N.[Cl][Pt][Cl] [CC, cisplatin, reference compound]
LDH release (A-2780): 36% | LDH release [1]: 48% | Cellular uptake of Pt (A375): 1.5% | Pt cell pellet (A375): 399.9 µg/L | Cellular uptake of Pt (MCF-7): 2.6% | Pt cell pellet (MCF-7): 760 µg/L | Cellular uptake of Pt (HUH-7): 1.2% | Pt cell pellet (HUH-7): 242.9 µg/L | Cellular uptake of Pt (A2780): 0.75% | Pt cell pellet (A2780): 163 µg/L | Cellular uptake of Pt (DU145): 0.9% | Pt cell pellet (DU145): 167.3 µg/L | LDH release (MRC-5): 37% | LDH release (PaTu Ca pancreatic): 25% | LDH release (HUT-7 Hepatocarcinoma): 32%

ACTGVG [reference compound]
penetration into the cells (cells): does not penetrate into the cells

Lp-CC (AVCGTG)
LDH release (A-2780): 85% | internalization, reaction with Ab anti-peptide (24 aa) [2]: positive | LDH release [1]: 77% | Cellular uptake of Pt (A375): 15.5% | Pt cell pellet (A375): 372 µg/L | Cellular uptake of Pt (MCF-7): 4.2% | Pt cell pellet (MCF-7): 97 µg/L | Cellular uptake of Pt (HUH-7): 5.2% | Pt cell pellet (HUH-7): 118.7 µg/L | Cellular uptake of Pt (A2780): 5.9% | Pt cell pellet (A2780): 144 µg/L | Cellular uptake of Pt (DU145): 13.8% | Pt cell pellet (DU145): 342.8 µg/L | internalization, reaction with Ab anti-peptide (24 aa) (A-375 Melanoma): positive | internalization, reaction with Ab anti-peptide (24 aa) (A-2780 Ovarian Ca): positive | internalization, reaction with Ab anti-peptide (24 aa) [3]: positive | internalization, reaction with Ab anti-peptide (24 aa) (HUH HCC): positive | LDH release (MRC-5): 40% | LDH release (PaTu Ca pancreatic): 60% | LDH release (HUT-7 Hepatocarcinoma): 69%

B1: rMnSOd: recombinant form of LSA-type-MnSOD bearing the 24 amino acid leader peptide at the N-terminus (protein, UniProt P04179 1-222, looked up)
chain: MLSRAVCGTSRQLAPVLGYLGSRQKHSLPDLPYDYGALEPHINAQIMQLHHSKHHAAYVNNLNVTEEKYQEALAKGDVTAQIALQPALKFNGGGHINHSIFWTNLSPNGGGEPKGELLEAIKRDFGSFDKFKEKLTAASVGVQGSGWGWLGFNKERGHLQIAACPNQDPLQGTTGLIPLLGIDVWEHAYYLQYKNVRPDYLKAIWNVINWENVTERYMACKK
modifications: full-length
internalization, reaction with Ab anti-peptide (24 aa) [2]: positive | internalization, reaction with Ab anti-peptide (24 aa) (A-375 Melanoma): positive | internalization, reaction with Ab anti-peptide (24 aa) (A-2780 Ovarian Ca): positive | internalization, reaction with Ab anti-peptide (24 aa) [3]: positive | internalization, reaction with Ab anti-peptide (24 aa) (HUH HCC): positive | reaction with polyclonal antibody against leader peptide of 24 aa [4]: positive

Source: US20160256535A1, “HEXAPEPTIDE AND USES THEREOF” (priority 2013, published 2016)
